Assay [1] relates to S. cerevisiae strain ADΔΔ (native ScCYP51). The assay can be described thus: MIC80 susceptibility, host strain ADΔΔ. It is filed as cell-based. As to conditions: Saccharomyces cerevisiae, Table 2, SD pH 6.8, 48 h, 30 °C. How it is done:
(§1) The susceptibilities of S. cerevisiae strains to antifungal drugs were determined as minimum growth inhibitory concentration (MIC) values in 200 μL SD pH 6.8 [24]. Serial 2-fold dilutions of 100 μL of azole or control drugs in SD pH 6.8 were prepared in a 96-well microtiter plate. A portion of a 2 mL SD pH 6.8 overnight culture of the test strain was inoculated into 3 mL fresh SD pH 6.8 and incubated for 4 to 6 h at 30 °C to generate logarithmic-phase cells. These cells were then diluted with fresh SD pH 6.8 to OD600nm = 0.01 (3 × 10^4 CFU), and 100 μL of this cell suspension was added to microtiter plate wells. Cell growth after 48 h incubation at 30 °C with shaking at 200 rpm was determined at 600 nm using a BioTek™ Synergy™ 2 multi-Mode microplate reader controlled using Gen5™ Data Analysis Software version 3.16.10 (BioTek Instruments, Winooski, VT, USA). MIC80 values (80% growth inhibition in the presence of the test drug compared with the untreated control) for each yeast construct were determined as technical triplicates repeated three times for three separate clones.

The subject of assay [2] is S. cerevisiae strain ADLS overexpressing ScCYP51-6×His. Description: MIC80 susceptibility, strain ADLS. It is filed as cell-based, Saccharomyces cerevisiae. As to conditions: Saccharomyces cerevisiae; Table 2; strain ADLS; SD pH 6.8, 48 h, 30 °C; ± SD; read-out: MIC80. On the procedure:
as §1

The test system of assay [3] is S. cerevisiae strain A (AfCyp51A-6×His, native ScCyp51 retained). Description: MIC80 susceptibility, strain A. It is filed as cell-based. As to conditions: Saccharomyces cerevisiae, Table 2, SD pH 6.8, 48 h, 30 °C. How it is done:
as §1

Assay [4] has as its system S. cerevisiae strain AR (AfCyp51A-6×His, AfCprA2-6×His). The assay can be described thus: MIC80 susceptibility, strain AR. It is filed as cell-based, Saccharomyces cerevisiae. How it is done: as §1
Assay [5] deals with S. cerevisiae strain ARE (AfCyp51A-6×His, AfCprA2, AfErg6-FLAG). The assay can be described thus: MIC80 susceptibility, strain ARE. It is filed as cell-based, Saccharomyces cerevisiae. As to conditions: Saccharomyces cerevisiae, strain ARE, ± SD, read-out: MIC80. How it is done: as §1
The test system of assay [6] is S. cerevisiae strain ARE Y121F (AfCyp51A-6×His Y121F, AfCprA2, AfErg6-FLAG). The assay can be described thus: MIC80 susceptibility, strain Y121F. As to conditions: Saccharomyces cerevisiae, ± SD, read-out: MIC80. It is filed as cell-based, Saccharomyces cerevisiae. How it is done: as §1
For assay [7], the system named is S. cerevisiae strain ARE T289A (AfCyp51A-6×His T289A, AfCprA2, AfErg6-FLAG). The assay can be described thus: MIC80 susceptibility, strain T289A. It is filed as cell-based, Saccharomyces cerevisiae. As to conditions: for MIC80: Saccharomyces cerevisiae, ± SD, read-out: MIC80. On the procedure: as §1
In assay [8] the test system is S. cerevisiae strain ARE Y121F T289A (AfCyp51A-6×His Y121F T289A, AfCprA2, AfErg6-FLAG). The assay can be described thus: MIC80 susceptibility, strain Y121F T289A. The class given is cell-based, Saccharomyces cerevisiae. As to conditions: Saccharomyces cerevisiae, ± SD, read-out: MIC80. How it is done: as §1
Assay [9] concerns S. cerevisiae strain ARE I301T (AfCyp51A-6×His I301T, AfCprA2, AfErg6-FLAG). The assay can be described thus: MIC80 susceptibility, strain I301T. As to conditions: Saccharomyces cerevisiae, ± SD, read-out: MIC80. It is filed as cell-based, Saccharomyces cerevisiae. How it is done:
as §1

The subject of assay [10] is S. cerevisiae strain B (AfCyp51B-6×His, native ScCyp51 retained). Description: MIC80 susceptibility, strain B. The class given is cell-based. As to conditions: Saccharomyces cerevisiae, Table 2, SD pH 6.8, 48 h, 30 °C. On the procedure: as §1
Assay [11] deals with S. cerevisiae strain BR (AfCyp51B-6×His, AfCprA2-6×His). Description: MIC80 susceptibility, strain BR. It is filed as cell-based. As to conditions: Saccharomyces cerevisiae; Table 2; strain BR; SD pH 6.8, 48 h, 30 °C; ± SD; read-out: MIC80. How it is done: as §1
The subject of assay [12] is S. cerevisiae strain BRE (AfCyp51B-6×His, AfCprA2, AfErg6-FLAG). The assay can be described thus: MIC80 susceptibility, strain BRE. The class given is cell-based, Saccharomyces cerevisiae. As to conditions: Saccharomyces cerevisiae, strain BRE, ± SD, read-out: MIC80. On the procedure:
as §1

The target in another assay is AfCYP51A-6×His (Aspergillus fumigatus, UniProt Q4WNT5). Description: Type II binding of azole drugs (difference spectra). As to conditions: AfCYP51A. How it is done:
(§2) The concentration of AfCYP51A and AfCYP51B, purified using Ni-NTA affinity chromatography and used for the spectrophotometric type I and type II binding assays, was calculated using an extinction co-efficient of λ417nm = 117 mM^−1 cm^−1 applied to the absolute absorption spectrum of the preparations. In addition, the amount of “active” cytochrome P450 enzyme was determined using the carbon monoxide (CO) binding spectra of these preparations.
(§3) Type II binding difference spectra were obtained using 1 μM of affinity-purified CYP51 enzymes. VCZ, PCZ, VT-1161, DCZ, and MCF working solutions were prepared in DMSO, while FLC was prepared in Milli-Q water. Azole drugs were added to the sample cuvette, and corresponding amounts of DMSO or Milli-Q water were added to the reference cuvette. Drug binding curves were plotted using the difference spectrum peak and trough detected in the range of 410–425 nm. Dissociation constants (Kd) were determined by nonlinear regression (Levenberg–Marquardt algorithm) of the difference in absorbance between the peak and trough against the azole concentration using a rearrangement of the Morrison equation or the Hill equation [7]. GraphPad Prism 9.2.0 software was used to identify the best fit for the data.

The next assay concerns the target T1, AfCYP51B-6×His (Aspergillus fumigatus, UniProt E9QY26).
T1 sequence (E9QY26 1-524): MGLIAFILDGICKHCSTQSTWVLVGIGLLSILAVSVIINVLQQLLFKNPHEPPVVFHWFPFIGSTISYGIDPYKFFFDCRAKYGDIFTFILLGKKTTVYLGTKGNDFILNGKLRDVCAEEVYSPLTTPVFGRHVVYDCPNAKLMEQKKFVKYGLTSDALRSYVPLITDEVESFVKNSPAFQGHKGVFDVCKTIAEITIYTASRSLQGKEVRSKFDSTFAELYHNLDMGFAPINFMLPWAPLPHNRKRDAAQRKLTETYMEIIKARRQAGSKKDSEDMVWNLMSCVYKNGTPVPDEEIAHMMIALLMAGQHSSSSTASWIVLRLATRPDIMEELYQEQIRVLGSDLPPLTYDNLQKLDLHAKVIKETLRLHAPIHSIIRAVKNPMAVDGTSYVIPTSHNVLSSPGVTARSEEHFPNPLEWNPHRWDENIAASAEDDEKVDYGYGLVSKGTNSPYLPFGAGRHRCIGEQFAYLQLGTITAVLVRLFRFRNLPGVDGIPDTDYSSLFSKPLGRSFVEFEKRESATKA
The assay is described as above. As to conditions: for ΔAmax (type II binding) / Kd: Hill equation; for Hill Number / Kd: type II binding. How it is done:
as §2, §3

The mark [13] stands for this setting: Table 2, strain Y121F, SD pH 6.8, 48 h, 30 °C.
[14] abbreviates: 48 h, pH 6.8, Table 2, strain T289A, SD pH 6.8, 48 h, 30 °C.
Where [15] appears, read: Table 2, strain Y121F T289A, SD pH 6.8, 48 h, 30 °C.
Setting [16] is: 48 h, pH 6.8, Table 2, strain I301T, SD pH 6.8, 48 h, 30 °C.
The mark [17] stands for this setting: Table 2, SD pH 6.8, 48 h, 30 °C.

The values that follow come from paper PMC11678245, “The Molecular Basis of the Intrinsic and Acquired Resistance to Azole Antifungals in Aspergillus fumigatus” (Journal of Fungi, 2024).

“And” between values parts separate entries of the source, which are not always exact repeats. Equal entries are not always repeated. Where two headings read alike, the source gives them in different places.

Chain of AfCYP51A-6×His (Q4WNT5 whole entry): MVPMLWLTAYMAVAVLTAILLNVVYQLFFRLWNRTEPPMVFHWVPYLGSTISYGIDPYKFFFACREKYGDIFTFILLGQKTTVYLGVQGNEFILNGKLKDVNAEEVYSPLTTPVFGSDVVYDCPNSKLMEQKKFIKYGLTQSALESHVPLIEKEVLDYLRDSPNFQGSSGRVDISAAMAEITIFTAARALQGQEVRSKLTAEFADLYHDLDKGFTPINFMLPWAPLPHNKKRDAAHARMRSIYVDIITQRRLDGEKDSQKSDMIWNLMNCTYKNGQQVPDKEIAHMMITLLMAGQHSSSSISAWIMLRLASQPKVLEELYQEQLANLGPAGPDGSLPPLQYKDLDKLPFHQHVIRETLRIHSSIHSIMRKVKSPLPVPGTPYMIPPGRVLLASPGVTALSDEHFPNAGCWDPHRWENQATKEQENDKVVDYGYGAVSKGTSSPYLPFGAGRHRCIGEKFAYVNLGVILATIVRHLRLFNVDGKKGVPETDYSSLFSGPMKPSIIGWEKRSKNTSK

For the compound `CC[C@@H]([C@H](C)O)n1ncn(-c2ccc(N3CCN(c4ccc(OC[C@@H]5CO[C@@](Cn6cncn6)(c6ccc(F)cc6F)C5)cc4)CC3)cc2)c1=O` [PCZ, posaconazole], the MIC80 amounted to 0.1 ± 0.01 µM in assay [1]; 0.29 ± 0.04 µM in [2]; 0.21 ± 0.01 µM in [3]; 0.19 ± 0.01 µM in [4] (Saccharomyces cerevisiae, 48 h, pH 6.8); 0.19 ± 0.02 µM in [4] (Table 2, strain AR, SD pH 6.8, 48 h, 30 °C, ± SD); 0.05 ± 0.017 µM in [5] (Table 3). Also, the MIC80 in assay [6] (setting [13]) turned out to be 0.06 ± 0.01 µM; in [6] (Table 3, strain ARE Y121F) it was 0.025 ± 0.003 µM; in [7] (setting [14]), 0.06 µM; in assay [7] (Table 3, strain ARE T289A) it was 0.043 ± 0.019 µM; in assay [8] (setting [15]), 0.11 ± 0.01 µM; in assay [8] (Table 3, strain ARE Y121F T289A) it was 0.101 ± 0.017 µM. The MIC80 in assay [9] (setting [16]) was 0.09 ± 0.02 µM; in assay [9] (Table 3, strain ARE I301T) it was 0.055 ± 0.001 µM; in [10], 0.25 ± 0.03 µM; in assay [11], 0.17 ± 0.02 µM; in assay [12] (setting [17]), 0.1 ± 0.01 µM; in assay [12] (Table 3), 0.06 ± 0.037 µM. Further, the “increase in susceptibility of strain T289A compared to strains ARE and ADΔΔ” value in [7] was 40%. At AfCYP51A-6×His (1 μM enzyme), the “λpeak (type II difference spectrum)” value is recorded as 423 nm. Further, the results for the “λtrough (type II difference spectrum)” value at AfCYP51A-6×His (1 μM enzyme) and on AfCYP51B-6×His (1 μM enzyme) were 395 nm and 388 nm, respectively. The “ΔAmax (type II binding)” value at AfCYP51A-6×His (1 μM enzyme, Hill equation) is given as 0.07; on AfCYP51B-6×His (1 μM enzyme) it was 0.10. For the same compound, the “Hill Number” value stood at 1.35 on AfCYP51A-6×His (type II binding) and 1.41 on AfCYP51B-6×His. For the same compound, the Kd at AfCYP51A-6×His (type II binding, 1 μM enzyme, Hill equation) was 1700 nM and 1720 nM; on AfCYP51B-6×His (1 μM enzyme), 2100 nM and 2150 nM.
Consider `O[C@@](Cn1cnnn1)(c1ccc(F)cc1F)C(F)(F)c1ccc(-c2ccc(OCC(F)(F)F)cc2)cn1` [VT-1161, oteseconazole], for which the MIC80 in assay [1] worked out at 0.01 µM; in assay [3] it was 0.03 µM; in assay [5] (setting [17]) it was 0.43 ± 0.05 µM; in assay [6] (setting [13]), 0.53 ± 0.02 µM; in assay [7] (setting [14]), 0.02 µM; in [8] (setting [15]), 1.07 ± 0.05 µM. The MIC80 in assay [9] (setting [16]) amounted to 0.14 ± 0.04 µM; in assay [10], 0.05 ± 0.01 µM; in assay [12] (setting [17]), 0.06 ± 0.01 µM. In assay [7], the “greater susceptibility (MIC80) of strain T289A compared with strain ARE” value came out at 21 fold. In addition, the “λpeak (type II difference spectrum)” value on AfCYP51B-6×His (1 μM enzyme) is given as 423 nm. The “λtrough (type II difference spectrum)” value at AfCYP51B-6×His (1 μM enzyme) turned out to be 391 nm. The “ΔAmax (type II binding)” value on AfCYP51B-6×His (1 μM enzyme) came out at 0.11. Moreover, the “Hill Number” value on AfCYP51B-6×His is listed as 0.87. The same compound showed a Kd on AfCYP51B-6×His (1 μM enzyme) of 3230 ± 2500 nM.

As usually defined, the MIC80 is an inhibitory concentration at the 80% level, which refers to growth in some studies and to a panel of isolates in others. As usually defined, the Kd is the equilibrium constant for the complex coming apart. High values mean a looser complex, low ones a tighter complex.
